Measurements as given in patent publication US20050163773A1, “Methods and pharmaceutical compositions for dopaminergic modulation of t-cell adhesion and activity” (priority 2001, published 2005).
“Also recorded” adds a separate entry of the source.

Legend:
[1] = system: Dopamine receptors on normal human T-cells; conditions: for blocking of DPAT-induced T-cell adhesion to fibronectin: DPAT 10 nM
Description: Non-radioactive assessment of T-cell binding was performed as described in Material and Methods, results presented as the mean ±OD of bound T-cells from 4-6 wells.
The treated cells were suspended in adhesion medium and incubated (30 min., 37° C.) in a humidified 10% CO2 incubator. The cells were seeded in the fibronectin-coated microtiter plates, and the plates were then returned to the incubator for an additional 30 min. incubation. The amount of T-cell adhesion was determined as above.

[2] = system: IL-10 secretion; conditions: Dopamine 10^−8 M, 72 hours
[3] = system: IL-4 secretion; conditions: Dopamine 10^−8 M, 24 hours
[4] = system: IL-10 secretion; test: IL-10 secretion by human peripheral T-cells (sandwich ELISA); assay type: cell-based; conditions: for inhibition of Dopamine-induced IL-10 secretion by receptor-specific antagonists: L-741,626 10^−7 M, U-Mal 10^−6 M, L-741,741 10^−6 M
Excerpt: The results are expressed as pg/ml IL-10. […] Immunostaining is with intracellular anti-IL-10 FITC conjugated (FL-1) and anti-CD4 PE conjugated (FL-2) antibodies, as described in Materials and Methods hereinbelow.
(§1) The results are expressed as pg/mi.
(§2) The results are expressed as pg/ml.
as §2, §2

[5] = system: normal human peripheral T-cells
[6] = system: normal human peripheral T-cells; conditions: Dopamine 10^−8 M, 48 hours
[7] = system: normal human T-cells; test: T-cell adhesion assay (adhesion of human T-cells to fibronectin); conditions: dose dependence, human T-cells
Description: T-cell adhesion assay: In the majority of the experiments, adhesion of purified normal human T-cells to fibronectin was assayed with radioactively labeled T-cells as follows: normal human T-cells, purified from a fresh blood sample, were labeled with Na2[^51CrO4], washed, and resuspended in adhesion medium (RPMI-1640 supplemented with 2% BSA, 1 mM Ca^++, 1 mM Mg^++, 1% sodium pyruvate, 1% glucose, and 1% HEPES buffer). The cells were then pre-treated (30 min., 37° C.) with DPAT, and added to fibronectin coated (1 μg/well; Sigma Chemicals, St. Louis, Mo.) microtiter flat-bottomed 96 well plates (1×10^5 cells/100 μl/well). The plates were placed in a humidified incubator (37° C., 30 min., 10% CO2), and than washed thoroughly several times with PBS, to remove non-adherent T-cells. The adherent T-cells were lysed with 1% Tween 20 in 1N NaOH, and the radioactivity in the resulting supernatants was determined in a γ-counter. For each experimental group, results were expressed as the mean CPM±SD of bound T-cells from quadruplicate wells. DPAT-treated T-cell adhesion to BSA-(rather than fibronectin) coated wells, and untreated T-cell adhesion to fibronectin coated wells, were the standard negative controls.
Non-radioactive T-cell adhesion assays: Alternatively, T-cell adhesion assays were performed with non-radioactively labeled cells, differing from the above protocol only in the final detection steps which were performed as follows: After the final washing of the adhesion plates and removal of the non adherent cells, the microtiter wells were supplemented with lysis and substrate solution (60 μl/well of: 0.5% Triton X-100 in water mixed with an equal volume of 7.5 mM p-nitrophenol-N-acetyl-β-D-glucosaminide, (Sigma Chemicals, St. Louis, Mo.) in 0.1M citrate buffer pH=5.0). The plates were then incubated (˜18hr) in a CO2-free 37° C. incubator, supplemented with stop solution (90 μl/well of 50 mM glycine, (Sigma Chemicals, St. Louis, Mo.) pH=10.4 containing 5 mM EDTA), and the optical density was measured at 405 nm in a standard Elisa reader.

[8] = system: TNFα secretion; test: TNFα secretion by human peripheral T-cells (sandwich ELISA); assay type: cell-based
Excerpt: as §2, §1, §2, §2, §2

[9] = system: SJL/J anti PLP 139-151 T-cells; test: Experimental autoimmune encephalomyelitis (EAE) induced by encephalitogenic T-cells treated ex vivo; assay type: in vivo, mouse; conditions: U-Mal 10^−7 M, 5 minutes before DPAT
[10] = system: oxazalone-sensitized T-cells; test: Passively transferred delayed type hypersensitivity (DTH) with T-cells treated ex vivo; assay type: in vivo, mouse
Description: Lymph nodes were removed from oxazalone-sensitized mice, and the T-cell suspension was exposed ex-vivo to increasing concentrations of DPAT (FIG. 9A, DPAT […]-DPAT 10^−6M) as described for FIG. 8 hereinabove. Control T-cells were incubated with medium only (untreated T-cells). The T-cells were then washed, resuspended in PBS and injected intravenously into naive syngeneic mice. The ears of the recipient mice were than challenged with oxazalone, and the degree of ear swelling was measured by micrometer 24 hr later. DTH is expressed as the mean ±SD of ear swelling in units of 10^−2 mm. […] Oxazalone-sensitized T-cells were incubated ex vivo for one hour with either DPAT (10^−8 M, +DPAT) or U-Mal (10^−7 M, +U-Mal), or both. The T-cells were then washed, resuspended in PBS, injected intravenously into normal recipients, and DTH measured as described hereinabove. […] FIGS. 9A and 9B represent two individual experiments, each experimental group consisting of 8 mice.
Passively transferred delayed type hypersenisitivity (DTH): Groups of 6-8 BALB/c female mice (The Jackson Laboratory, Bar Harbor, Mass., USA) were sensitized on the abdominal skin with 200 μt of 2% oxazalone dissolved in acetone/olive oil [4:1 vol/vol)] applied topically. Five days later, lymph nodes were removed from the sensitized mice, and a cell suspension prepared. The cells (3-5×10^6/ml in RPMI, no additional supplements) were than added for […] incubation ([…]. 37° C., 10% CO2 humidified incubator) with either DPAT, U-Mal, or both (in the latter combination the antagonist added 5 minutes before the agonist). The cells were than washed, resuspended in PBS, and injected IV (40×10^6 /mouse) into normal BALB/c recipients. Immediately afterwards the recipient mice were […] with 10 μl of 2% oxazalone in acetone/olive oil, applied topically to each side of the ear. A constant area of the ear was measured immediately before challenge and 24 hr after the challenge with a Mitutoyo engineer's micrometer. The individual measuring the ear swelling was unaware of the identity of the mice groups. The DTH reaction is expressed as the mean±SD (for each group) of the increment of ear swelling 24 hours after inoculation of the oxazalone-sensitized T-cells, in units of 10^−2 mm.

[11] = system: α4β1 and α5β1 integrins; test: Inhibition of induced T-cell adhesion to fibronectin with specific integrin blockers; assay type: cell-based, human; conditions: for blocking of DPAT-induced T-cell adhesion to fibronectin by integrin blockers: DPAT 10 nM; for blocking of DPAT-induced T-cell adhesion to fibronectin by integrin blockers / blocking of Dopamine-induced T-cell adhesion to fibronectin by integrin blockers: mAbs 15-25 μg/ml, peptides 50 μg/ml; for blocking of Dopamine-induced T-cell adhesion to fibronectin by integrin blockers: Dopamine 10 nM; for inhibition of PMA-induced T-cell adhesion to fibronectin by integrin blockers: PMA as positive control
Description: The results are presented as the mean ±SD CPM of bound T-cells from quadruplicate wells. One experiment, representative of two, is presented for each of the three inducers of T-cell binding.
The treated cells were seeded in fibronectin-coated microtiter plates.

CC(C)(C)[C@]1(O)CCN2C[C@H]3c4ccccc4CCc4cccc(c43)[C@@H]2C1 [Butaclamol]
blocking of DPAT-induced T-cell adhesion to fibronectin [1]: without effect

NCCc1ccc(O)c(O)c1 [Dopamine]
IL-10 secretion, cloned resting Th0 cells [2]: strong induction | IL-10 secretion, cloned resting Th1 cells ("forbidden" cytokine) [2]: secreting significant amounts of IL-10 | IL-10 secretion, cloned resting Th2 cells [2]: strong induction | IL-4 secretion [3]: but not IFN-γ (FIG. 11B) or IL-4 | Dopamine concentration inducing maximal IL-10 secretion ([4]; 72 hours): 10^−4 M | Dopamine concentration with significant effect on IL-10 secretion ([4]; 72 hours): ≥ 10^−8 M | increase in IL-10 secretion ([4]; Dopamine 10 nM, 72 hours): 2.5 fold | IL-10 secretion at excess Dopamine ([4]; Dopamine 10^−3 M): drastic reduction in cytokine secretion | time of maximal IL-10 secretion ([4]; Dopamine 10^−8 M): 72 h | IL-10 release ([4]; Dopamine 10^−8 M, 72 hours, no antigen stimulation): induced a strong release of IL-10 | cellular death in normal T-cells [5]: induces cellular death | r-RNA bands in total RNA (loss of viability) ([5]; Dopamine 10^−3): near total absence of r-RNA bands | increase in the number of IL-10 producing T-helper cells [6]: 9% | optimum concentration for induction of T-cell adhesion to fibronectin [7]: 10 nM | Dopamine concentration inducing maximal TNFα secretion ([8]; 24 hours): 10^−4 M | Dopamine concentration with significant effect on TNFα secretion ([8]; 24 hours): ≥ 10^−8 M | TNFα secretion at excess Dopamine ([8]; Dopamine 10^−3 M): drastic reduction in cytokine secretion | TNF-α release ([8]; Dopamine 10^−8 M, 24 hours, no antigen stimulation): induced a strong release of TNF-α

OC1(c2ccc(Cl)cc2)CCN(Cc2c[nH]c3ccccc23)CC1 [L-741,626]
inhibition of Dopamine-induced IL-10 secretion by receptor-specific antagonists ([4]; Dopamine 10^−8 M, 72 hours): inhibited by the D2

Oc1cc2c(cc1O)C(c1ccccc1)CNCC2 (centres unmarked) [SKF 38393]
induction of TNFα secretion by receptor-specific Dopamine agonists ([8]; agonist 10^−7 M, 24 hours): induced by D1

CCCN(CCC)C1Cc2cc(OC)c(OC)cc2C1.O=C(O)/C=C\C(=O)O [U-Mal, U-99194A maleate]
inhibition of Dopamine-induced IL-10 secretion by receptor-specific antagonists ([4]; Dopamine 10^−8 M, 72 hours): inhibited by the D2 and D3 | effect of pre-treatment on the DPAT suppressive effect in EAE [9]: prevented | effect on DTH by itself ([10]; U-Mal 10^−7 M alone): no effect by itself | effect of pre-treatment on DPAT suppression of DTH ([10]; U-Mal 10^−7 M, 5 minutes before DPAT 10^−8 M): near total block of protection; also recorded: prevented | blocking of DPAT-induced T-cell adhesion to fibronectin [1]: succeeded in blocking | independent effect on T-cell adhesion to fibronectin ([1]; antagonist alone, data not shown): no independent effect | toxic effects on the human T-cells ([1]; data not shown): no toxic effects | inhibition of Dopamine-induced TNFα secretion by receptor-specific antagonists ([8]; Dopamine 10^−8 M, 24 hours, L-741,626 10^−7 M, U-Mal 10^−6 M, L-741,741 10^−6 M): inhibited by D3

gly-arg-gly-asp-ser (GRGDS) [RGD peptide]
blocking of DPAT-induced T-cell adhesion to fibronectin by integrin blockers [11]: effectively blocked | blocking of Dopamine-induced T-cell adhesion to fibronectin by integrin blockers [11]: effectively blocked | inhibition of PMA-induced T-cell adhesion to fibronectin by integrin blockers [11]: inhibition

gly-arg-gly-glu-ser (GRGESP) [RGE-containing peptide, non-relevant RGE-containing control peptide]
blocking of DPAT-induced T-cell adhesion to fibronectin by integrin blockers [11]: No significant effect | blocking of Dopamine-induced T-cell adhesion to fibronectin by integrin blockers [11]: No significant effect | inhibition of PMA-induced T-cell adhesion to fibronectin by integrin blockers [11]: insensitivity
